For one experiment, the target named is T1, M2 muscarinic receptors (Rattus norvegicus, UniProt P10980).
T1 construct: displacing from rat brain homogenates, cerebellum or frontal cortex; from tissue; host or cells: rat cerebellum homogenates
T1 sequence (P10980 1-466): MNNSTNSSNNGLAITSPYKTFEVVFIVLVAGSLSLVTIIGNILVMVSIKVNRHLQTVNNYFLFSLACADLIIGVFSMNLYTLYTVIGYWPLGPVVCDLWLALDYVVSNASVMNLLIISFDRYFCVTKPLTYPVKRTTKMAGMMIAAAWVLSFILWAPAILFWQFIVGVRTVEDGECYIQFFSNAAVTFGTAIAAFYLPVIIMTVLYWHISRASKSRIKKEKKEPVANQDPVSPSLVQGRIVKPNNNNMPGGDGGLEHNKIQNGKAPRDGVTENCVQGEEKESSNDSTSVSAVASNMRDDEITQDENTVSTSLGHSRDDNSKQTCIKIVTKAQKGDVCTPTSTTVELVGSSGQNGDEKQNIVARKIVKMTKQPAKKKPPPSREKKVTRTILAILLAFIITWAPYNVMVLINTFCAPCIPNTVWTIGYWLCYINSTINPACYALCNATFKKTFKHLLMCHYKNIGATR
Kind of experiment: Displacement of 3H-QNB from rat cerebellum, 50 mM phosphate buffer. In kind it is binding.

Experiment [1] concerns the target T2, M1 muscarinic receptor (Rattus norvegicus, UniProt P08482).
T2 sequence (P08482 1-460): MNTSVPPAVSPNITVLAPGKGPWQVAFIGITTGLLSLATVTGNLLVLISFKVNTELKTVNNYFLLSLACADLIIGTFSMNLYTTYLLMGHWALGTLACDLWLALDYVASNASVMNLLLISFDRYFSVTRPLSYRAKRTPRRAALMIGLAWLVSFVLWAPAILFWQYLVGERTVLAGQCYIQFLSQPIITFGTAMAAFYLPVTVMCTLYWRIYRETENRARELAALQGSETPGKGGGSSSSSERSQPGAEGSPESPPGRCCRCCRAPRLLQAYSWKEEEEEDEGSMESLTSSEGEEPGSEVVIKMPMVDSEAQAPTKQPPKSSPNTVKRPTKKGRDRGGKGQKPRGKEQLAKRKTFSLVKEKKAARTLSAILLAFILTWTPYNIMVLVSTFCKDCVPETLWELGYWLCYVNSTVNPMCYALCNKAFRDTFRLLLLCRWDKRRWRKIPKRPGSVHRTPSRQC
Briefly: Displacement of 3H-PZ from rat cerebral cortex, 10 mM phosphate buffer. The experiment is classed as binding. Further details: from tissue; host or cells: rat cerebral cortex homogenates.

Another experiment concerns muscarinic receptors. Kind of experiment: (-)3H-QNB binding to rat cerebral cortex homogenates with and without Cu++ treatment.
Another experiment addresses m3 receptors (Rattus norvegicus, UniProt P08483). Briefly: PI hydrolysis in CHO cells transfected with m3 receptors. In kind it is cell-based. The settings on record: for effective concentration which induces the effect: CHO m3, PI hydrolysis, footnote b; for PI (phosphoinositides hydrolysis): CHO m3, tested at 1mM. On the procedure: The new compounds AF150, AF151, AF150(S) and AF125 were assayed for their ability to stimulate PI in CHO cells transfected with m1 and m3 receptors, respectively (Buck and Fraser, loc cit), and in cultured human neuroblastoma cells, line SK-N-SH, which express mainly the m3 subtype, but not the m1 subtype (Pinkas-Kramarski et al, Neurosci. Lett. 188: 335-340, 1990; Luthin et al Mol. Pharmacol. 34: 327-333, 1988). These compounds were also assayed on cultured PC12 cells which express mainly m4 subtype receptors and are coupled to inhibition of AC activity (Pinkas-Kramarski et al, loc cit).
Stimulation of PI breakdown was assayed using the method described by Stein et al (EMBO J. 7: 3031-3035, 1988), and modulation of AC activity was assayed by the method of Stein et al, loc cit and Pinkas-Kramarski et al (FEBS Lett., 239: 174-178, 1988). […]

Experiment [2] deals with T2, M1 muscarinic receptor. Kind of experiment: Displacement of 3H-QNB from rat cerebral cortex, 50 mM phosphate buffer. In kind it is binding.
In the next experiment the test system is AF64A-treated rats. Briefly: 8-arm radial maze (RAM) with delay procedure in AF64A-treated rats, Part B. In kind it is in vivo. Here is the method: This animal model mimics the cholinergic hypofunction and cognitive dysfunction in SDAT (Fisher and Hanin, loc cit; Fisher et al, Neurosci. Lett. 102: 325-331, 1989); the method described in the latter publication was used here.
In brief, saline- and A64A-pretreated rats (3 nmole/2 µl./side, icv) were used in these experiments, 2.5 months after the lesion. The experiment was carried out over a three-week period. During the first week the rats were trained to find food pellets in all eight arms of the maze. After learning the task, the rats were trained using the delay procedure. During a predelay session, four of the arms of the maze were closed and the rats collected the food pellets from the remaining four opened arms. During this period working memory errors were recorded. Following a two hour delay, the rats were returned to the maze. All of the arms of the maze were now open but only four of them, those which were closed during the pre-delay session, were baited. The rats had to collect the food pellets without entering any previously visited arms, whether during the predelay or the post-delay session. After reaching a baseline level the rats were tested for their performance during the third week of the experiment in which either 10mM phosphate buffer (pH 7.3), or AF150 (0.07 or 1.0 mg./kg. free base dissolved in 10 mM phosphate buffer, pH 7.3), were administered i.p., immediately after the pre-delay session, once a day for five days.

The mark [3] stands for this setting: cortex, Table 4, read-out: 3H-PZ-Binding KH (a).

The record followed here is patent publication EP0452101B1, “Spiro bridged and unbridged heterocyclic compounds” (ISRAEL INSTITUTE FOR BIOLOGICAL RESEARCH, priority 1990, dated 1991).

Where two headings read alike, the source gives them in different places.

Chain of m3 receptors (P08483 whole entry): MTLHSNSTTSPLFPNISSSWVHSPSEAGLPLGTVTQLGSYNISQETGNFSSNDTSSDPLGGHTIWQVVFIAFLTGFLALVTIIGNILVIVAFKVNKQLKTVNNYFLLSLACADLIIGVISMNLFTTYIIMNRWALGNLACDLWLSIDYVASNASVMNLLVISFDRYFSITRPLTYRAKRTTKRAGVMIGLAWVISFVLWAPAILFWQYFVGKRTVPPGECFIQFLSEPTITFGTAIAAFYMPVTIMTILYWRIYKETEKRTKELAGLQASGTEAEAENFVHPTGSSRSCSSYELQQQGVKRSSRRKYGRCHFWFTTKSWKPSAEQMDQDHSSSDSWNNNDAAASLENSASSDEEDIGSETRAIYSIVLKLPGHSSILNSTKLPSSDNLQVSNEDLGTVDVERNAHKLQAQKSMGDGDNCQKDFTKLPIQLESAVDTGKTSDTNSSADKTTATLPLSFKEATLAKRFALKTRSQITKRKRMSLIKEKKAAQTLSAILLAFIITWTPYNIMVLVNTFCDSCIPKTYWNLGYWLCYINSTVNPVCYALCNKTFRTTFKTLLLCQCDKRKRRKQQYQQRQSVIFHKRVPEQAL

With `CC1=NCC2(CN3CCC2CC3)O1` (racemic) [AF125, 2-Methyl-spiro(1,3 oxazoline-5,3')quinuclidine], the Ki on M2 muscarinic receptors (read-out: 3H-QNB-Binding KH2 (c), cerebellum, Table 5) came to 3.8 µM; on M2 muscarinic receptors (read-out: 3H-QNB-Binding KH (c), cerebellum, Table 4) it was 3.8 µM; at M1 muscarinic receptor [1] (setting [3]), 4 µM.
As for `CC1=NCC2(CCN(C)CC2)O1` [AF150, 2-Methyl-spiro(1,3-oxazoline-5,4')-1'-methylpiperidine], the “%H (% of high affinity state)” value was found to be 37% in the experiment with muscarinic receptors (with Cu++ pretreatment (100 µM, 30 minutes)); 37±2% in the experiment on muscarinic receptors (with Cu++ pretreatment (100 µM, 30 minutes), listed as 5); 14% with muscarinic receptors (without pretreatment); 14±1% in the experiment with muscarinic receptors (without pretreatment, listed as 5). Further, the Ki at muscarinic receptors (with Cu++ pretreatment (100 µM, 30 minutes), read-out: KH) is 0.52 ± 0.003 µM; at muscarinic receptors (with Cu++ pretreatment (100 µM, 30 minutes), read-out: KL) it was 18 ± 2 µM; on muscarinic receptors (without pretreatment, read-out: KH), 0.32 µM; on muscarinic receptors (without pretreatment, read-out: KL), 33.5 µM; at M2 muscarinic receptors (cerebellum, Table 4, read-out: 3H-QNB-Binding KH (c)) it was 4.5 µM; on M2 muscarinic receptors (cerebellum, Table 4, read-out: 3H-QNB-Binding KL (d)), 79 µM. Moreover, the Ki on M2 muscarinic receptors (cerebellum, Table 5, read-out: 3H-QNB-Binding KH2 (c)) is 4.9 µM; on M2 muscarinic receptors (cerebellum, Table 5, read-out: 3H-QNB-Binding KL2 (d)) it was 83 µM; on M1 muscarinic receptor [1] (setting [3]) it was 0.02 µM; at M1 muscarinic receptor [1] (cortex, Table 4, read-out: 3H-PZ-Binding KL (b)), 18 µM. For the same molecule, the “effective concentration which induces the effect” value on m3 receptors is given as 10^b µM. The “PI (phosphoinositides hydrolysis)” value on m3 receptors is “+”. Further, the “RATIOS c:a” value on M1 muscarinic receptor [2] (KH2 cerebellum : KH1 cortex (3H-QNB)) came to 3.5; on M1 muscarinic receptor [1] (KH cerebellum (3H-QNB) : KH cortex (3H-PZ)) it was 225. Also, the “RATIOS b:a” value came out at 49 at M1 muscarinic receptor [2] (KL1 : KH1 cortex (3H-QNB)) and 900 on M1 muscarinic receptor [1] (KL : KH cortex (3H-PZ)). The “RATIOS d:b” value on M1 muscarinic receptor [2] (KL2 cerebellum : KL1 cortex (3H-QNB)) came out at 17; at M1 muscarinic receptor [1] (KL cerebellum (3H-QNB) : KL cortex (3H-PZ)), 4.4. On M1 muscarinic receptor [2] (cortex, Table 5), the “% H1” value is on record as 13%. On M1 muscarinic receptor [2] (cortex, Table 5), the “% L1” value is listed as 87%. Also, the “RATIOS d:c” value on M2 muscarinic receptors (KL2 : KH2 cerebellum (3H-QNB)) is 17. In addition, the “% H” value at M2 muscarinic receptors (cerebellum, Table 4) is listed as 49%; at M1 muscarinic receptor [1] (cortex, Table 4) it was 24%. Also, the “%L” value was determined as 51% at M2 muscarinic receptors (cerebellum, Table 4) and 76% at M1 muscarinic receptor [1] (cortex, Table 4). For the same molecule, on M2 muscarinic receptors (cerebellum, Table 5), the “% H2” value turned out to be 51%. Besides, the “% L2” value at M2 muscarinic receptors (cerebellum, Table 5) was 49%. In addition, the “Working memory errors (session I)” value in the experiment with AF64A-treated rats (AF150 0.07 mg./kg., i.p. group, AF64A rats, week (pre)II, before treatment) worked out at 3.33±1.18; with AF64A-treated rats (AF150 0.07 mg./kg., i.p. group, Sal. rats, week (pre)II, before treatment), 0.33±0.12; in the experiment with AF64A-treated rats (AF150 0.07 mg./kg., i.p., AF64A rats, week III) it was 3.75±1.04; with AF64A-treated rats (AF150 0.07 mg./kg., i.p., Sal. rats, week III), 0.18±0.07; in the experiment on AF64A-treated rats (AF150 1.0 mg./kg., i.p. group, AF64A rats, week (pre)II, before treatment), 3.00±0.94; in the experiment on AF64A-treated rats (AF150 1.0 mg./kg., i.p. group, Sal. rats, week (pre)II, before treatment), 0.11±0.05. The “Working memory errors (session I)” value with AF64A-treated rats (AF150 1.0 mg./kg., i.p., AF64A rats, week III) was 4.22±1.76; with AF64A-treated rats (AF150 1.0 mg./kg., i.p., Sal. rats, week III), 0.13±0.07. The “analgesia (tail pinch)” value in the experiment on Mice, Male CD strain (1 mg./kg. i.p., any time of observation) was “No analgesia”; in the experiment with Mice, Male CD strain (5 mg./kg i.p., 15 minutes after injection), “Partial analgesia”; with Mice, Male CD strain (10 mg./kg. i.p., 15 and 30 minutes), “complete”; in the experiment on Mice, Male CD strain (10 mg./kg. i.p., ≥ 60 minutes), “no analgesia”.
For the molecule `CC1=NC2(CCN(C)CC2)CO1` [AF151, 1-methylpiperidine-4-spiro-4'-(2'-methyl-1',3'-oxazoline)], on m3 receptors, the “effective concentration which induces the effect” value is recorded as 10^b µM and the “PI (phosphoinositides hydrolysis)” value was “+”.
